Measured values reported in patent US10993935B2, “Compositions and methods for treatment of lung infections” (priority 2018, dated 2021).
Values after ≈ are worked out from the molar mass of the structure shown. Where two headings read alike, the source gives them in different places.

Columns and labels:
Acinetobacter baumannii = experiment: RFX MIC testing against MDR clinical isolates; assay type: cell-based
Protocol: (§1) Minimum Inhibitory Concentration Testing. MIC testing was performed as previously described. Briefly, overnight culture of bacteria was diluted in 1:100 of a 0.5 McFarland standard as inoculum. The same number of cells was grown in LB broth containing serial, two-fold dilutions of rifaximin (RFX) or tobramycin (TOB). Growth was measured via optical density (OD) at 600 nm after 24 h incubation at 37° C. Concentrations of antibiotic required for inhibition of 50% and 90% of strains were determined.
(§2) Because RFX was not a traditional treatment for P. aeruginosa infections, it was first tested whether RFX was effective in vitro against P. aeruginosa and other bacterial pathogens seen in CF. Since RFX is not used for treatment of ventilator-associated pneumonia (VAP), it was thought the isolates of tracheal aspirates from VAP patients in the ICU may be sensitive to RFX. To determine the susceptibility to RFX, resistant isolates from the Cabell Huntington Hospital were chosen to measure the minimum inhibitory concentrations (MIC) for RFX (Table 3).
(§3) MIC50 and MIC90 are the concentrations of RFX required for the growth inhibition of 50% and 90% of strains, respectively.

Burkholderia cepacia = experiment: RFX MIC testing against MDR clinical isolates; assay type: cell-based
Protocol: as §1, §2, §3

Pseudomonas aeruginosa = experiment: RFX MIC testing against MDR clinical isolates; assay type: cell-based
Protocol: as §1, §2, §3

Staphylococcus aureus = experiment: RFX MIC testing against MDR clinical isolates; assay type: cell-based
Protocol: as §1, §2, §3

[1] = tested on: promoter PalgD of the alginate biosynthetic operon; experiment: PalgD-lacZ promoter reporter (β-galactosidase) activity; assay type: cell-based, Pseudomonas aeruginosa; settings: PAO581, CF001, CF010; MIC1, MIC10, MIC30, MIC50 on PIA, 37° C., 24 h
Protocol: FIGS. 2A-2C include graphs showing RFX versus TOB mediated inhibition of the promoter PalgD activity of the alginate biosynthetic operon in laboratory and clinical isolates of P. aeruginosa. The β-galactosidase activity of PalgD was measured using the pLP170-PalgD-lacZ reporter construct in PAO581 (FIG. 2A), CF001 (FIG. 2B), and CF010 (FIG. 2C) grown on PIA plates with increasing concentrations of RFX or TOB (MIC1, MIC10, MIC30, MIC50) at 37° C. for 24 h. Relative expression mean values are shown ±SE of triplicate determinations. Two-way ANOVA was used to determine statistical significance set at a P value of <0.01 (****, P<0.0001).
While RFX inhibits alginate production, additional experiments were conducted to determine whether the inhibition was specific to alginate or whether it was a global suppression of transcription. To test this, the promoter reporter constructs PalgD_lacZ in pLP170 were used to quantify the promoter activity of the alginate biosynthetic operon PalgD. A promoter-less empty vector pLP170-lacZ was used as a negative control. Using the β-galactosidase reporter activity, the activity of PalgD in PAO581 was quantified (FIG. 2A), and two mucoid isolates (CF001 and CF010) from CF patients.

[2] = Solubility of RFX in nebulization solvents; assay type: physicochemical
Protocol: As treatment for traveler's diarrhea, RFX is a drug optimized for oral use. For RFX to be useful as a treatment for CF patients, it was determined whether RFX could be delivered to the lungs through nebulization. Nebulizing RFX was initially unsuccessful and more difficult than presumed. […] RFX was not soluble in water-based solutions, but was soluble in dimethyl-sulfoxide (DMSO) and ETOH (ethanol) in small volumes. […] However, 100% DMSO could be used to retain RFX in solution and deliver to the lungs as noted by HPLC data.

[3] = tested on: P. aeruginosa PAO1 with bioluminescent operon (luxCDABE); experiment: Murine pneumonia model, multiple-dose treatment, lung bacterial load; assay type: in vivo, DBA/2 mice; settings: 300 mg doses at 6, 8 and 10 h post-infection (3× TOB, or RFX then 2× TOB); lungs at 12, 18, 24 h
Source text: FIG. 6 is a graph showing that the addition of RFX to multiple treatments of TOB results in a decrease of CFU per milliliter of P. aeruginosa in mouse lungs. Plot showing the CFU per milliliter counts of mice after being infected with P. aeruginosa and left untreated, treated with multiple doses of TOB, or treated with multiple doses of TOB with addition of RFX. Data shown represent average of 2 mice per time point per group. Two-way ANOVA was used to test for statistical significance with a P value of <0.01 (****, P<0.0001).
Female DBA/2 mice were infected at 0 hour and split into 3 experimental groups of 8: no treatment; treatment with 300 mg TOB at 6, 8, and 10 h post-infection; or treatment with 300 mg RFX at 6 h and 300 mg TOB at 8 and 10 h post-infection. Two mice from each group were sacrificed at 12, 18, and 24 h post-infection. Lungs from sacrificed mice were homogenized in 1% PPBS and tested for bacterial growth to determine CFU load per mouse. Bacteria grown were also imaged for evidence of bioluminescence. Two mice from each group were left to observe for survival.
Based on the efficacy seen with the single dose treatment a multiple dose study was used to replicate clinical treatment conditions seen with CF infections. The efficacy of TOB in multiple doses with or without RFX was determined using the established lung infection model. […]

Question: For `CO[C@H]1/C=C/O[C@@]2(C)Oc3c(C)c(O)c4c(O)c(c5c(nc6cc(C)ccn65)c4c3C2=O)NC(=O)/C(C)=C\C=C\[C@H](C)[C@H](O)[C@@H](C)[C@@H](O)[C@@H](C)[C@H](OC(C)=O)[C@@H]1C` [RFX, rifaximin], which MIC50 (Acinetobacter baumannii; Acinetobacter baumannii, 9 strains, concentration inhibiting growth of 50% of strains) is on record?
Answer: Its MIC50 is under 0.5 µg/mL.

Question: And the MIC90 (Acinetobacter baumannii; Acinetobacter baumannii, 9 strains, concentration inhibiting growth of 90% of strains)?
Answer: Its MIC90 is under 0.5 µg/mL.

Question: What about the “growth of clinical isolates” value (Acinetobacter baumannii; clinical isolates, in words) of the same compound?
Answer: Its value is “effectively inhibit the growth”.

Question: What about the MIC50 (Burkholderia cepacia; Burkholderia cepacia, 4 strains, concentration inhibiting growth of 50% of strains) of the same compound?
Answer: The MIC50 was 16 µg/mL (≈ 20.4 µM).

Question: And the MIC90 (Burkholderia cepacia; Burkholderia cepacia, 4 strains, concentration inhibiting growth of 90% of strains)?
Answer: The MIC90 was 32 µg/mL (≈ 40.7 µM).

Question: What about the “growth of clinical isolates” value (Burkholderia cepacia; clinical isolates, in words) of the same compound?
Answer: The value was “effectively inhibit the growth”.

Question: And the MIC50 (Pseudomonas aeruginosa; 26 MDR clinical isolates, concentration inhibiting growth of 50% of strains)?
Answer: Its MIC50 is 8 µg/mL (≈ 10.2 µM).

Question: What about the MIC90 (Pseudomonas aeruginosa; 26 MDR clinical isolates, concentration inhibiting growth of 90% of strains) of the same compound?
Answer: Its MIC90 is 16 µg/mL (≈ 20.4 µM).

Question: And the MIC50 (Pseudomonas aeruginosa; Pseudomonas aeruginosa, MDR P. aeruginosa, read-out: MIC50)?
Answer: The MIC50 was 8 µg/mL (≈ 10.2 µM).

Question: And the MIC90 (Pseudomonas aeruginosa; Pseudomonas aeruginosa, MDR P. aeruginosa, read-out: MIC90)?
Answer: The MIC90 was 16 µg/mL (≈ 20.4 µM).

Question: What about the MIC50 (Staphylococcus aureus; 22 strains, concentration inhibiting growth of 50% of strains) of the same compound?
Answer: Its MIC50 is 2 µg/mL (≈ 2.54 µM).

Question: What about the MIC90 (Staphylococcus aureus; 22 strains, concentration inhibiting growth of 90% of strains) of the same compound?
Answer: The MIC90 was 16 µg/mL (≈ 20.4 µM).

Question: What about the MIC50 (Staphylococcus aureus; MDR S. aureus including MRSA) of the same compound?
Answer: The MIC50 was 2 µg/mL (≈ 2.54 µM).

Question: And the MIC90 (Staphylococcus aureus; MDR S. aureus including MRSA)?
Answer: The MIC90 was 16 µg/mL (≈ 20.4 µM).

Question: What about the “PalgD promoter activity (β-galactosidase reporter)” value [1] of the same compound?
Answer: The value was “more pronounced effect on promoter activity than TOB”.

Question: What about the solubility ([2]; in 20%, 40%, and 80% DMSO in PBS, came out of solution on nebulization) of the same compound?
Answer: The solubility was “partially or fully dissolve”.

Question: And the solubility ([2]; in DMSO)?
Answer: The solubility was “readily soluble”.

Question: What about the solubility ([2]; in PBS or saline) of the same compound?
Answer: The solubility was “did not dissolve”.

Question: What about the solubility ([2]; in dimethyl-sulfoxide (DMSO) and ETOH (ethanol) in small volumes) of the same compound?
Answer: The solubility was “soluble”.

Question: And the solubility ([2]; in water)?
Answer: Its solubility is “only sparingly soluble”.

Question: And the solubility ([2]; in water-based solutions)?
Answer: The solubility was “not soluble”.

Question: Which “bacterial growth in the lungs” value [3] does the source give for `NC[C@H]1O[C@H](O[C@H]2[C@H](O)[C@@H](O[C@H]3O[C@H](CO)[C@@H](O)[C@H](N)[C@H]3O)[C@H](N)C[C@@H]2N)[C@H](N)C[C@@H]1O` [TOB, tobramycin] here?
Answer: The value was “around 10^8 CFUs”.
